{"source": "patent US20210188773A1", "about": "“NOVEL POLYMOPHS OF S-NITROSOCAPTOPRIL (CAP-NO) AND ITS PROCESS FOR PREPARATION” (FUZHOU UNIVERSITY, priority 2018, published 2021)", "system": "Pulmonary hypertension (PAH) rats", "assay": "Effect on monocrotaline (MCT) pulmonary hypertension (PAH) model rats", "type": "in vivo, rat", "procedure": "Pulmonary hypertension (PAH) rats, being monocrotaline (MCT) intraperitoneal injected, were divided into 4 groups: control group (n=7), 50 mg/kg captopril group (n=7), 10 mg/kg S-nitrosocaptopril group (n=7), 50 mg/kg S-nitrosocaptopril group (n=7) and health group (n=9). Rats of all groups were orally administered once a day for 30 days."}
{"smiles": "C[C@H](CS)C(=O)N1CCC[C@H]1C(=O)O", "note": "[captopril, Captopril]", "values": [{"measurement": "average pleural effusion of dead rats", "setting": "50 mg/kg oral once a day", "value": 3.3, "unit": "mL"}, {"measurement": "mean right ventricular mass index (RVMI)", "setting": "50 mg/kg oral once a day", "value": 53.8, "unit": "%"}, {"measurement": "number of rats remaining (from 7)", "setting": "50 mg/kg oral once a day for 30 days", "value": 3}]}
